The values below come from US20260049331A1, “Sense-and-Response of Proteins, Peptides, and Small Molecules Using Ligand-Induced Dimerization Activating RNA Editing (LIDAR)” (The Board of Trustees of the Leland Stanford Junior …, priority 2022, published 2026).

Where only a bound is given, the exact number is not on record here.

Test [1] relates to AVPR-LIDAR and CX3CR1-LIDAR. The test is described as follows: orthogonal ChaCha-like LIDAR receptors (AVPR-LIDAR and CX3CR1-LIDAR) in the same cell. It counts as cell-based, human. The conditions noted are these: MCP/MS2 reporter outputs EGFP, PCP/PP7 reporter outputs mTagBFP; FIG. 10K. How it is done: To maintain a fast design-build-test cycle, unless specified, all prototyping experiments were performed by transiently co-transfecting receptor-encoding DNA plasmids into human embryonic kidney (HEK) 293 cells.
To program more complex multi-cellular behaviors, as well as to integrate multiple inputs for targeted cell therapies, it is often required to have receptors that process orthogonal signals in the same cell. In our most commonly used configuration (Tango-like LIDAR), the β-arrestin2-RBP fusion protein is recruited to all GPCRs without discrimination. This means that with two different GPCR-LIDAR receptors (e.g., AVPR-based LIDAR and CX3CR1-based LIDAR) the system would only be able to produce one output, triggered by either ligand. In the inverted version, the ADAR2dd and the RBP are interchanged to obtain the GPCR-RBP and β-arrestin2-ADAR2dd fusion proteins, analogous to TANGO vs. ChaCha receptors (25) (FIG. 10J). Because a separate RBP is needed for each receptor. MCP was used for a reporter RNA harboring MS2 loops and outputting EGFP and PP7 bacteriophage coat protein (PCP) for a reporter RNA harboring PP7 loops and outputting mTagBFP.

The subject of test [2] is CCR6-based LIDAR outputting iCASP9 (cLSM01-C5 cells). The test is described as follows: LIDAR-induced cell apoptosis with iCASP9 output in stable cell line cLSM01-C5. As to conditions: only when both CCL20 and AP1903 are present; flow cytometry and microscopy; FIG. 9F. The class given is cell-based. The protocol:
In terms of generalizing functional outputs, LIDAR was used to output iCASP9 as a ligand-dependent cell death controller (13) (FIG. 9E), as iCASP9 induces apoptosis in response to the dimerizing molecule AP1903. A monoclonal cell line was generated (cLSM01-C5) expressing all three components of CCR6-based LIDAR by stable PiggyBac integrations. […] Another functional output was then tested, tobacco etch virus (TEV) protease, given our expertise (14) and its broad use (15) in synthetic circuits. A LIDAR-produced TEV protease rescues a fluorescent protein linked via a TEV protease cleavage site to a degron (FIG. 9G). Its dose response curve resembles that of the corresponding LIDAR that directly outputs EGFP (FIG. 9H and FIG. 13F). […] This indicates the potential for LIDAR to be implemented in more complex circuits (16).

Another test addresses T1, CCR6-based LIDAR (Homo sapiens, UniProt P51684).
T1 construct: ADAR2dd (deaminase domain of ADAR2); expressed in transfected cells; host or cells: HEK293 (receiver cells)
The test is described as follows: CCR6-based LIDAR sensing of secreted or membrane-bound CCL20 from sender cells. The class given is cell-based. The conditions noted are these: conditioned media from CCL20-secreting cells or co-culture with cells displaying CCL20; FIG. 10A-D. The source says: Inspired by examples from synNotch (19, 20) and given the advantage that LIDAR could potentially sense both membrane-bound and soluble ligands. LIDAR was used to drive cell-cell interactions to ultimately program complex multicellular behaviors (21-23). CCR6-based LIDAR senses its ligand, CCL20 (FIG. 10A-D), when the receiver cells are either exposed to conditioned media from CCL20-secreting cells (FIG. 10A, B) or co-cultured with cells displaying CCL20 on their surface (FIG. 10C, D). […] Receiver cells surrounding cells that produce secreted ligands were plated (FIG. 10E), a response gradient was observed going from the sender cells outwards (FIG. 10F). In contrast, when the receiver cells with sender cells producing a membrane-bound ligand were tested, the response pattern is limited to the sender-receiver interface (FIG. 10G, H). The images were quantified to extract the LIDAR output intensity profiles in response to membrane-bound and secreted ligands.

Test [3] has as its target GPCR fused to MCP (inverted GPCR LIDAR design; GPCRs not named). The test is described as follows: cell-based or functional assay.

T1 sequence (P51684 whole entry, the tested form may be a part): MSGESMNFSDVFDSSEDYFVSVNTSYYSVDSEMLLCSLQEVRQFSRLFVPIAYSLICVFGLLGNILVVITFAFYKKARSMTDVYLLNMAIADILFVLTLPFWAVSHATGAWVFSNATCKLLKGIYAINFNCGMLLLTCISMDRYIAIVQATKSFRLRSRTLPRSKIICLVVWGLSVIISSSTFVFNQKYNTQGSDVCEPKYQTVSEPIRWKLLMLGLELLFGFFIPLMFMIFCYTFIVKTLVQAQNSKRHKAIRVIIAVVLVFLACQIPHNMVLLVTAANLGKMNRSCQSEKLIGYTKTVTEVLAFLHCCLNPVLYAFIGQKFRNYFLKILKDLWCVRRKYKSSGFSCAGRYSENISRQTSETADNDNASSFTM
T1 sequence (P32121 whole entry partner, the tested form may be a part): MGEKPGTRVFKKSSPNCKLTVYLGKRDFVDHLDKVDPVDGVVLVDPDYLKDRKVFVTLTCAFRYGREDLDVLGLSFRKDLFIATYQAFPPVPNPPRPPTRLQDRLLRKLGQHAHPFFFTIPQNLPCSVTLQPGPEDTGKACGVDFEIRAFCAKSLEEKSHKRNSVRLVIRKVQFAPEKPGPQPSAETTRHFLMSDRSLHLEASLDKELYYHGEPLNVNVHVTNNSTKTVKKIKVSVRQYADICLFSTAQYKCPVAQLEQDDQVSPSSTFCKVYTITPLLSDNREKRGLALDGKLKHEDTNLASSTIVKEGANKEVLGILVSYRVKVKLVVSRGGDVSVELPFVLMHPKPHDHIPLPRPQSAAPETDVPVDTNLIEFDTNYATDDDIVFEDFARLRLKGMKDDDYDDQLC

Turning to `NC(=O)CC[C@@H]1NC(=O)[C@H](Cc2ccccc2)NC(=O)[C@H](Cc2ccc(O)cc2)NC(=O)[C@@H](N)CSSC[C@@H](C(=O)N2CCC[C@H]2C(=O)N[C@@H](CCCN=C(N)N)C(=O)NCC(N)=O)NC(=O)[C@H](CC(N)=O)NC1=O` [AVP, Arginine vasopressin, reference compound], the “output produced by each ligand in the same cell” value in test [1] is on record as “EGFP exclusively”. In the case of CCL20: chemokine, GPCR ligand of CCR6, the cell death entry in test [2] is reported as “Substantial cell death”. Besides, in the test with CCR6-based LIDAR, the “ligand sensing by receiver cells” value is “senses”. For the molecule “β-arrestin2-ADAR2dd (inverted / ChaCha-like LIDAR) (from UniProt P32121 1-409; P78563 299-701)”, the fold activation of inverted GPCR LIDAR in test [3] was < 17 ×. Consider `CC[C@H](C(=O)N1CCCC[C@H]1C(=O)O[C@H](CCc1ccc(OC)c(OC)c1)c1cccc(OCC(=O)NCCNC(=O)COc2cccc([C@@H](CCc3ccc(OC)c(OC)c3)OC(=O)[C@@H]3CCCCN3C(=O)[C@@H](CC)c3cc(OC)c(OC)c(OC)c3)c2)c1)c1cc(OC)c(OC)c(OC)c1` [AP1903, reference compound], for which, in test [2], the cell death result was “Substantial cell death”.

B1: CX3CL1: ligand of CX3CR1-LIDAR (protein)
chain: QHHGVTKCNITCSKMTSKIPVALLIHYQQNQASCGKRAIILETRQHRLFCADPKEQWVKDAMQHLDRQAAALTRNG
Consider B1, for which, in test [1], the “output produced by each ligand in the same cell” value was “mTagBFP exclusively”.
